From the NIST ThermoML archive (doi:10.1016/j.tca.2004.08.001)

Assays:
[1] = refractive index (Na D-line) (dimensionless); xn = mol fraction of the nth substance listed; conditions: 303.15 K, 101.3 kPa, Liquid, Standard Abbe refractometry
[2] = xn = mol fraction of the nth substance listed; conditions: 303.15 K, 101.3 kPa, Liquid; for speed of sound: Linear variable-path acoustic interferometer
[3] = refractive index (Na D-line) (dimensionless); conditions: 303.15 K; 101.33 kPa; Liquid; Standard Abbe refractometry
[4] = 303.15 K, 101.33 kPa, Liquid; for speed of sound: Linear variable-path acoustic interferometer

ClC(Cl)Cl [trichloromethane] + C1CCOC1
Conditions	mass density, [2] [kg/m3]	refractive index, [1]	speed of sound, [2] [m/s]	viscosity, [2] [mPa·s]
x2 = 0.1023	1410.89	1.438	986	0.5307
x2 = 0.2085	1349.01	1.4346	1006	0.5467
x2 = 0.3045	1292.84	1.4315	1024	0.5566
x2 = 0.4278	1220.11	1.4273	1051	0.559
x2 = 0.5003	1176.98	1.4251	1070	0.558
x2 = 0.6047	1114.67	1.421	1102	0.5445
x2 = 0.6976	1058.96	1.4168	1133	0.5245
x2 = 0.8077	992.59	1.4121	1174	0.4955
x2 = 0.8921	941.69	1.4079	1208	0.4676

CCCCCCBr [1-bromohexane] + C1CCOC1
Conditions	mass density, [2] [kg/m3]	refractive index, [1]	speed of sound, [2] [m/s]	viscosity, [2] [mPa·s]
x2 = 0.0976	1146.32	1.442	1087	0.8602
x2 = 0.3008	1107.3	1.4368	1119	0.7753
x2 = 0.4975	1061.2	1.4307	1154	0.6995
x2 = 0.696	1002.92	1.4223	1194	0.6258
x2 = 0.9	924.62	1.4105	1235	0.5054

CCCCOC(C)=O [butyl ethanoate] + C1CCOC1
Conditions	mass density, [2] [kg/m3]	refractive index, [1]	speed of sound, [2] [m/s]	viscosity, [2] [mPa·s]
x2 = 0.1033	871.17	1.3911	1177	0.6261
x2 = 0.1989	871.58	1.3924	1182	0.6085
x2 = 0.3041	872.04	1.3941	1188	0.5892
x2 = 0.3995	872.51	1.3954	1194	0.5762
x2 = 0.4967	873.01	1.397	1201	0.5573
x2 = 0.6013	873.59	1.3979	1210	0.5346
x2 = 0.6979	874.18	1.3991	1219	0.5107
x2 = 0.7978	874.96	1.4005	1229	0.4893
x2 = 0.8999	875.79	1.4018	1241	0.4644

COC(C)=O [methyl ethanoate]
Conditions	mass density [kg/m3]	refractive index	speed of sound [m/s]	viscosity [mPa·s]
[3]	–	1.3567	–	–
[4]	920.83	–	1136	0.343

COC(C)=O [methyl ethanoate] + C1CCOC1
Conditions	mass density, [2] [kg/m3]	refractive index, [1]	speed of sound, [2] [m/s]	viscosity, [2] [mPa·s]
x2 = 0.1028	915.9	1.3649	1151	0.3512
x2 = 0.3022	906.64	1.3748	1178	0.3672
x2 = 0.5035	897.56	1.3847	1204	0.3841
x2 = 0.693	889.35	1.3927	1226	0.4035
x2 = 0.8918	881.07	1.4008	1246	0.4251

CCOC(C)=O [ethyl acetate]
Conditions	mass density [kg/m3]	refractive index	speed of sound [m/s]	viscosity [mPa·s]
[3]	–	1.3664	–	–
[4]	888.55	–	1117	0.4043

ClC(Cl)Cl [trichloromethane]
Conditions	mass density [kg/m3]	refractive index	speed of sound [m/s]	viscosity [mPa·s]
[3]	–	1.441	–	–
[4]	1470.59	–	967	0.51

CCCCCOC(C)=O [pentyl ethanoate] + C1CCOC1
Conditions	mass density, [2] [kg/m3]	refractive index, [1]	speed of sound, [2] [m/s]	viscosity, [2] [mPa·s]
x2 = 0.1067	867.69	1.3967	1198	0.7426
x2 = 0.298	868.75	1.3978	1203	0.7005
x2 = 0.4997	870.25	1.3992	1212	0.6373
x2 = 0.6997	872.25	1.4005	1224	0.5686
x2 = 0.9027	875	1.4021	1242	0.4829

ClC(Cl)(Cl)Cl [tetrachloromethane]
Conditions	mass density [kg/m3]	refractive index	speed of sound [m/s]	viscosity [mPa·s]
[3]	–	1.4555	–	–
[4]	1574.82	–	905	0.8441

C1CCOC1 [tetrahydrofuran]
Conditions	mass density [kg/m3]	refractive index	speed of sound [m/s]	viscosity [mPa·s]
[3]	–	1.4028	–	–
[4]	876.7	–	1255	0.4383

CCCCOC(C)=O [butyl ethanoate]
Conditions	mass density [kg/m3]	refractive index	speed of sound [m/s]	viscosity [mPa·s]
[3]	–	1.3896	–	–
[4]	870.8	–	1172	0.6453

CCCCCOC(C)=O [pentyl ethanoate]
Conditions	mass density [kg/m3]	refractive index	speed of sound [m/s]	viscosity [mPa·s]
[3]	–	1.3961	–	–
[4]	867.2	–	1197	0.7573
